Laboratory results from patent publication US8163901B2, “Amide derivatives as ion-channel ligands and pharmaceutical compositions and methods of using the same” (Evotec AG, priority 2008, dated 2012).

How the values were obtained:
Assay type in all cases: cell-based
[1] = target: T1, hVR1 (Homo sapiens, UniProt Q8NER1); assay: Calcium uptake assay (FLIPR), inhibition of capsaicin-induced calcium influx
T1 construct: R710-07 (T-REx host cell line); host or cells: T-REx System cell line, called 'human keratinocyte cell line' and 'HEK 293 cells'
Protocol: (§1) Functional activity of compounds against the VR1 receptor was determined by measuring changes in intracellular calcium in HEK 293 cells expressing hVR1. Compounds were examined for their ability to inhibit agonist-induced calcium influx. Relative levels of [Ca^2+] were monitored in a 96-well format using a calcium-sensitive fluorescence dye and a FLIPR TETRA, Molecular Devices.
(§2) Cells that express high levels of VR1 were obtained by generation of a cell line from human keratinocytes with heterologous expression of VR1 under control of an inducible promoter. Specifically, cells expressing human VR1 under the control of the human cytomegalovirus immediate-early (CMV) promoter and two tetracycline operator 2 (TetO2) sites were made using the T-REx System (Invitrogen, Carlsbad, Calif., USA). Details and methods concerning this system are published (Hum. Gene Ther. 9, pp. 1939-1950, 1998; Annu. Rev. Microbiol. 48, pp. 345-369, 1994; Mol. Biol. 169, pp. 707-'721, 1983). Human VR1 was subcloned into the T-REx System pcDNA5/TO vector (Invitrogen Cat# V1033-20) which was transfected into the T-REx System human keratinocyte cell line (Invitrogen Cat# R710-07) from which a stable cell line was established which expresses VR1 after induction by exposure to tetracycline or doxycycline (Hum. Gene Ther. 9, pp. 1939-1950, 1998; instructions that come with purchase of products noted above). Cells were maintained in a CO2 incubator (5% CO2) at 37° C. in culture medium containing DMEM with phenol red (Mediatech Cat #: 15-017-CV) supplemented with 10% heat-inactivated Fetal Bovine Serum, 5% Penicillin-streptomycin (Mediatech Cat #: 30-002-CI), 5% Glutamax® (L-Alanyl-L-Glutamine, Mediatech Cat #: 25-015-CI), 200 μg/ml hygromycin (Mediatech #:30-240-CR), 0.5 μg/ml blasticidin (Invitrogen #46-1120)).
(§3) For assay preparation, cells expressing human VR1 as described above were plated in 96-well plates (Becton Dickinson [BD] poly-D-lysine coated 96-well plates, cat #356692) at 55,000 cells per well in culture media (described above) that also contained 1 ug/ml doxycycline. Plated cells were then placed in an incubator (5% CO2) and incubated for 20-26 hours at 37° C., until the cells had grown to near confluency. Media was then aspirated from cells and 50 uL of dye-containing buffer (from Molecular Devices FLIPR Calcium 4 Assay kit, cat# R8141) was added to each well. Cells were then left in the dark at room temperature for 1.5-2 hours. Cell plates were then placed in the FLIPR TETRA (Molecular Devices, CA, USA). Test compounds and agonists were added to wells using the liquid handling capability of the FLIPR TETRA. Calcium responses of the cells were monitored by fluorescence readout of dye signal. Test compounds in saline (130 mM NaCl, 17 g/L sucrose, 1.8 g/L glucose, 8.8 mM HEPES, 3 mM KCl, 0.60 mM MgCl, 1.0 mM CaCl2; adjust to pH 7.4 using NaOH; 0.03% BSA added on the day of the experiment), or vehicle control in saline, were pre-incubated at the desired final concentrations in the dark at room temperature for 2 or 30 minutes with cells already containing the above mentioned dye buffer (dye solution was diluted 1:1 in culture wells with saline containing 2× the final concentration of test compound). […] Another agonist was protons via a low pH solution (saline solution described above plus 10 mM citric acid buffered to pH 5.7 with HCl instead of buffering to a neutral pH with NaOH as done for normal saline). Compounds were tested at various concentration ranges, depending upon potency of compound. After the 2 minute or 30 minute compound pre-treatment, treatment solution was then added to cells by adding a volume of treatment solution equal to the pretreatment solution already on the cells.

[2] = target: T1, hVR1; assay: Calcium uptake assay (FLIPR), inhibition of low pH (proton)-induced calcium influx; conditions: agonist protons, low pH solution pH 5.7; cells expressing hVR1
Protocol: as §1, §2
as §3, with “compound). Compound IC50 experiments were run using an agonist concentration at or near the EC50 of the agonist.” for “compound).”, “cells. […]” for “cells.”

[3] = target: T1, hVR1; assay: Determination of pA2 values against capsaicin stimulation (Ca2+ imaging, Schild analysis)
Protocol: Changes in the fluorescence signal (λex=470-495 nm, λem=515-575 nm) are monitored throughout the experiment before agonist addition and for at least 2 min after agonist addition (enough time for the fluorescence response to reach and then decline from the absolute maximum, agonist-induced signal attained). For each well, final relative fluorescence units (RFUs) are calculated as the difference between the maximum fluorescence signal obtained in the experiment after agonist addition and the signal level seen at baseline before agonist, but after antagonist, addition (the absolute minimum level of fluorescence signal observed in the 10 seconds prior to agonist addition). […] Data are fit to an ideal curve utilizing the 4-parameter sigmoid curve-fit function in GraphPad Prism software (version 4, GraphPad Software, Inc., San Diego, Calif., USA) from which an EC50 value is obtained. […] For each antagonist, at least three concentrations are tested. Dose Ratio values are then used to make a standard Schild plot—log [antagonist concentration] plotted against log [DR−1], see Kenakin reference above for theoretical background and method. A linear regression curve-fit is then performed on these plotted points. […] If these conditions are not met, then the antagonist is rerun in a pA2 assay using different antagonist concentrations until the above conditions are met.

T1 sequence (Q8NER1 whole entry): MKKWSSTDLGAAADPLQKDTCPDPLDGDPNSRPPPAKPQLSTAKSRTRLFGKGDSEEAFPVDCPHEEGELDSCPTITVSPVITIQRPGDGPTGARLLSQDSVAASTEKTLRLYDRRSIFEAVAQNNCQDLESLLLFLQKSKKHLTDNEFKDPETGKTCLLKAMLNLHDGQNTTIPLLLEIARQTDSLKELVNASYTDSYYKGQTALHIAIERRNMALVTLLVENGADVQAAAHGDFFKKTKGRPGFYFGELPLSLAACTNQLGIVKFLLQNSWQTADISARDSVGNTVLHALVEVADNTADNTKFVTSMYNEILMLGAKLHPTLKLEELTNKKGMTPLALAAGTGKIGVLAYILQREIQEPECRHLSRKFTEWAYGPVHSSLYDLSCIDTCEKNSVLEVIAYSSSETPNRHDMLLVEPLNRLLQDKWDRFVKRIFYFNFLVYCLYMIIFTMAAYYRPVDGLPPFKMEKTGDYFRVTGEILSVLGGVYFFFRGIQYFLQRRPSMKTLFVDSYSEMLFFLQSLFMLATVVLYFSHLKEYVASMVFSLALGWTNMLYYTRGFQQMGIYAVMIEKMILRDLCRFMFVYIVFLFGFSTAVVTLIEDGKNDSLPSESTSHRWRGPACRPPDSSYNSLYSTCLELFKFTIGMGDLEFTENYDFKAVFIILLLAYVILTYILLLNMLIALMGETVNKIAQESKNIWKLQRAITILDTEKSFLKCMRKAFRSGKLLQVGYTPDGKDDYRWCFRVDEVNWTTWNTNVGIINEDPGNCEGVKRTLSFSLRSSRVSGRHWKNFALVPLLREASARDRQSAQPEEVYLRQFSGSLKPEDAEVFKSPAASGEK

SMILES	IC50 [1] [µM]	IC50 [2] [nM]	Kb [3] [µM]
CC(NC(=O)[C@H]1COc2cc(C(C)(C)C)ccc2O1)c1ccc2[nH]ncc2c1 (single isomer, unassigned) [Compound 7]	0.029	226	0.0161
CC(C)(c1ccc2c(n1)CC[C@@H](C(=O)Nc1cnc3c(c1)COCC3)C2)C(F)(F)F (single isomer, unassigned) [Compound 18]	0.006	18	0.032
C[C@@H](NC(=O)[C@@H]1CCc2nc(C(C)(C)C(F)(F)F)ccc2C1)c1ccc2[nH]ncc2c1 [Compound 11, (R)-2-(2,2,2-Trifluoro-1,1-dimethyl-ethyl)-5,6,7,8-tetrahydro-quinoline-6-carboxylic acid [(R)-1-(1H-indazol-5-yl)-ethyl]-amide]	0.009	23	0.00179
C[C@@H](NC(=O)[C@H]1CCc2nc(C(C)(C)C(F)(F)F)ccc2C1)c1ccc2[nH]ncc2c1 [Compound 12, (S)-2-(2,2,2-Trifluoro-1,1-dimethyl-ethyl)-5,6,7,8-tetrahydro-quinoline-6-carboxylic acid [(R)-1-(1H-indazol-5-yl)-ethyl]-amide]	0.002	6	0.000208
CC(C)(c1ccc2c(n1)CC[C@@H](C(=O)Nc1cnc3sc(CO)nc3c1)C2)C(F)(F)F [Compound 15, (R)-2-(2,2,2-Trifluoro-1,1-dimethyl-ethyl)-5,6,7,8-tetrahydro-quinoline-6-carboxylic acid (2-hydroxymethyl-thiazolo[5,4-b]pyridin-6-yl)-amide]	0.019	18	0.00505

Continued, values first:

IC50 [1] [µM]	IC50 [2] [nM]	Kb [3] [µM]	SMILES
0.009	67	0.017	CC(C)(c1ccc2c(n1)CC[C@H](C(=O)Nc1cnc3c(c1)COCC3)C2)C(F)(F)F (single isomer, unassigned) [Compound 19]
0.033	40	0.0229	CC(C)(c1ccc2c(n1)CC[C@@H](C(=O)Nc1cnc3ccccc3c1)C2)C(F)(F)F [Compound 21, (R)-2-(2,2,2-Trifluoro-1,1-dimethyl-ethyl)-5,6,7,8-tetrahydro-quinoline-6-carboxylic acid quinolin-3-ylamide]
0.002	9	0.00591	CC(=O)N1CCc2ccc(NC(=O)[C@@H]3CCc4nc(C(C)(C)C(F)(F)F)ccc4C3)cc21 [Compound 23, (R)-2-(2,2,2-Trifluoro-1,1-dimethyl-ethyl)-5,6,7,8-tetrahydro-quinoline-6-carboxylic acid (1-acetyl-2,3-dihydro-1H-indol-6-yl)-amide]
